Measured values as given in US20220251143A1, “NON-HYDROLYZABLE NON-CLEAVABLE, STABLE LINKERS FOR PRECISION THERAPEUTICS AND USES THEREOF” (THE TRUSTEES OF COLUMBIA UNIVERSITY IN THE CITY OF NEW YORK, priority 2019, published 2022).
Bridge positions count the residues as written; N and C are the ends. Square brackets hold non-standard residues; d marks the D form. Peptide text beside a SMILES is read from it. * marks the point of attachment. DM1Mal(CH2)2CO = COc1cc2cc(c1Cl)N(C)C(=O)C[C@H](OC(=O)[C@H](C)N(C)C(=O)CCSC1CC(=O)N(CCC(=O)*)C1=O)[C@]1(C)O[C@H]1[C@H](C)[C@@H]1C[C@@](O)(NC(=O)O1)[C@H](OC)/C=C/C=C(\C)C2; X1 = COc1cc2cc(c1Cl)N(C)C(=O)C[C@H](OC(=O)[C@H](C)N(C)C(=O)CCSC1CC(=O)N(CCCC(=O)*)C1=O)[C@]1(C)O[C@H]1[C@H](C)[C@@H]1C[C@@](O)(NC(=O)O1)[C@H](OC)/C=C/C=C(\C)C2; d2Nal = N[C@H](Cc1ccc2ccccc2c1)C(=O)O; PEG2 = NCCOCCOCCC(=O)O

Tests used:
[1] = Stability of aqueous solutions at 4° C.; format: physicochemical; conditions: preliminary studies
Source text: (§1) Conjugate composition comprising DM1 and lanreotide and the non-hydrolyzable, non-cleavable, stable linker GMBS was synthesized as shown in Scheme 1. Briefly, the primary amine of lanreotide was protected with Boc20. The reaction of the second amine group of the protected lanreotide with the NHS ester of GMBS gave the intermediate GMBS-lanreotide. The reaction of the maleimide of GMBS-lanreotide with the sulfhydryl group (—SH) of DM1 gave a protected conjugate. De-protection of the Boc with TFA provided the final product. All compounds were fully characterized and purified to >95% as determined by NMR and LC-MS analyses. The purity of the compound for animal studies is >98%.
as §1, with “PEG” for “GMBS”, “2.” for “1.”, “PEG-lanreotide.” for “GMBS-lanreotide.”, “PEG-lanreotide” for “GMBS-lanreotide”

[2] = system: neuroendocrine prostate cancer (NEPC) organoids; conditions: three days
Source text: A neuroendocrine prostate cancer (NEPC) cell line was used and NEPC organoids were generated.
CellTiter-Glo Luminescent Cell Viability assay measured viable cells. The percentage of viable cells after drug treatment compared to vehicle control (DMSO) was used to generate a dose—response curve.

[3] = system: SSTR2 expression in NEC1 (NCI-H82) cells; test: SSTR2 expression by quantitative PCR, NEC1; format: cell-based; conditions: within 72 hours, 1 or 3 nanomolar romidepsin or 1 micromolar entinostat
Experimental: (§2) Three neuroendocrine cell lines, NEC1 (NCI—H82), NEC2 (Kelly), and NEC3 (H727), were incubated in media containing 1 or 3 nanomolar romidepsin (EA1) or 1 micromolar entinostat (EA2) or without drug at 37° C. under 5% CO2 for 72-96 hours after which time cellular RNA was harvested and expression of the SSTR determined.
(§3) Somatostatin receptor expression was measured by quantitative PCR using primers for SSTR2.

[4] = system: SSTR2 expression in NEC2 (Kelly) cells; test: SSTR2 expression by quantitative PCR, NEC2; format: cell-based; conditions: within 72 hours, 1 or 3 nanomolar romidepsin or 1 micromolar entinostat
Experimental: as §2, §3

[5] = system: SSTR2 expression in NEC3 (H727) cells; test: SSTR2 expression by quantitative PCR, NEC3; format: cell-based; conditions: within 72 hours, 1 or 3 nanomolar romidepsin or 1 micromolar entinostat
Experimental: as §2, §3

Row | Compound | stability of aqueous solutions [1] | effectiveness compared with conjugate with cleavable, hydrolysable linker (MCC) ([2]; NEPC organoids) | activity in NEPC organoids (viable cells) ([2]; 1 uM to 0.00046 uM) | induction of the somatostatin receptor (SSTR2 expression) [3] | induction of the somatostatin receptor (SSTR2 expression) [4] | induction of the somatostatin receptor (SSTR2 expression) [5]
1 | COc1cc2cc(c1Cl)N(C)C(=O)C[C@H](OC(=O)[C@H](C)N(C)C(=O)CCSC1CC(=O)N(CCCC(=O)N[C@H](Cc3ccc4ccccc4c3)C(=O)N[C@H]3CSSC[C@H](C(=O)N[C@H](C(N)=O)[C@@H](C)O)NC(=O)[C@H](C(C)C)NC(=O)[C@H](CCCCN)NC(=O)[C@@H](Cc4c[nH]c5ccccc45)NC(=O)[C@H](Cc4ccc(O)cc4)NC3=O)C1=O)[C@]1(C)O[C@H]1[C@H](C)[C@@H]1C[C@@](O)(NC(=O)O1)[C@H](OC)/C=C/C=C(\C)C2 (stereo partly shown) [DM1-GMBS-Lanreotide] (X1-[d2Nal]CY[dW]KV[dC]T-NH2; disulfide 2-7) | stable at 4 °C for months |  |  |  |  | 
2 | COc1cc2cc(c1Cl)N(C)C(=O)C[C@H](OC(=O)[C@H](C)N(C)C(=O)CCSC1CC(=O)N(CCC(=O)NCCOCCOCCC(=O)N[C@H](Cc3ccc4ccccc4c3)C(=O)N[C@H]3CSSC[C@H](C(=O)N[C@H](C(N)=O)[C@@H](C)O)NC(=O)[C@H](C(C)C)NC(=O)[C@H](CCCCN)NC(=O)[C@@H](Cc4c[nH]c5ccccc45)NC(=O)[C@H](Cc4ccc(O)cc4)NC3=O)C1=O)[C@]1(C)O[C@H]1[C@H](C)[C@@H]1C[C@@](O)(NC(=O)O1)[C@H](OC)/C=C/C=C(\C)C2 (stereo partly shown) [DM1-PEG-Lanreotide] ({DM1Mal(CH2)2CO-PEG2}-[d2Nal]CY[dW]KV[dC]T-NH2; disulfide 2-7) | stable at 4 °C for months | more effective | effective and active |  |  | 
3 | Nc1ccccc1NC(=O)c1ccc(CNC(=O)OCc2cccnc2)cc1 [entinostat] |  |  |  | Induction of the somatostatin receptor | Induction of the somatostatin receptor | Induction of the somatostatin receptor
